The subject of this assay is P388 leukemia ip, CD2F1 mice, survival T/C. Put plainly: NCI In Vivo Anticancer Drug Screen. Data for tumor model P388 Leukemia (intraperitoneal) in CD2F1 (CDF1) mice. The note with it: endpoint: median survival time, higher = longer survival. An outline of the steps:
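Mice carrying the transplanted tumor received test compound or vehicle. Survival was recorded in each group, and the value is the treated-group measurement divided by that of the vehicle-treated control group.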

Setting [1] is: dose: 100.0 mg/kg/injection, schedule: Q01DX001 (ip), vehicle: saline with Tween-80.
Setting [2] is: dose: 100.0 mg/kg/injection, schedule: Q04DX003 (ip), vehicle: saline with Tween-80.
Where [3] appears, read: dose: 200.0 mg/kg/injection, schedule: Q01DX001 (ip), vehicle: saline with Tween-80.
Where [4] appears, read: dose: 200.0 mg/kg/injection, schedule: Q04DX003 (ip), vehicle: saline with Tween-80.
Setting [5] is: dose: 5.0 mg/kg/injection, schedule: Q01DX009 (ip), vehicle: saline.
The mark [6] stands for this setting: dose: 10.0 mg/kg/injection, schedule: Q01DX009 (ip), vehicle: saline.

Several values for one entry are separate records, joined by “and”; a condition that tells them apart may be missing. Identical values can stand only once. Toxic doses and inconclusive results are not listed.

As to `N=C(N)c1ccc(/C=C/c2ccc(C(=N)N)cc2)cc1`, the T/C is 119 % of control (dose: 8.0 mg/kg/injection, schedule: Q01DX009 (ip), vehicle: saline with Tween-80); 122 % of control and 124 % of control (dose: 16.0 mg/kg/injection, schedule: Q01DX009 (ip), vehicle: saline with Tween-80); 124 % of control (dose: 32.0 mg/kg/injection, schedule: Q01DX009 (ip), vehicle: saline with Tween-80); 177 % of control (dose: 64.0 mg/kg/injection, schedule: Q01DX009 (ip), vehicle: Klucel (hydroxypropylcellulose) (HPC)).

On to `O=c1c(O)c(-c2ccc(O)c(O)c2)oc2cc(O)cc(O)c12`, for which the T/C is, setting by setting: (dose: 12.5 mg/kg/injection, schedule: Q03HX008 (ip), vehicle: saline with Tween-80) 95 % of control; (dose: 25.0 mg/kg/injection, schedule: Q03HX008 (ip), vehicle: saline with Tween-80) 91 % of control; (dose: 40.0 mg/kg/injection, schedule: Q01DX009 (ip), vehicle: saline with Tween-80) 100 % of control; (dose: 50.0 mg/kg/injection, schedule: Q03HX008 (ip), vehicle: saline with Tween-80) 93 % of control; (dose: 80.0 mg/kg/injection, schedule: Q01DX009 (ip), vehicle: saline with Tween-80) 100 % of control; under setting [1], 108 % of control. For the same compound, the T/C by setting is: (dose: 100.0 mg/kg/injection, schedule: Q03HX008 (ip), vehicle: saline with Tween-80) 99 % of control; under setting [2], 95 % of control; under setting [3], 98 % of control; (dose: 200.0 mg/kg/injection, schedule: Q03HX008 (ip), vehicle: saline with Tween-80) 103 % of control; under setting [4], 109 % of control; (dose: 400.0 mg/kg/injection, schedule: Q01DX001 (ip), vehicle: saline with Tween-80) 104 % of control. Moreover, the T/C (dose: 400.0 mg/kg/injection, schedule: Q04DX003 (ip), vehicle: saline with Tween-80) was 104 % of control and the T/C (dose: 800.0 mg/kg/injection, schedule: Q01DX001 (ip), vehicle: saline with Tween-80) was 108 % of control.

On to `COc1cc(C(=O)C[n+]2ccccc2)ccc1O`, for which the T/C (dose: 50.0 mg/kg/injection, schedule: Q04DX003 (ip), vehicle: saline with Tween-80) was 100 % of control; the T/C under setting [2] was 100 % of control; the T/C under setting [4] is 100 % of control.

As for `O=C(OC1CCCc2ccccc21)c1ccc(N=Nc2ccccc2)cc1` (centres undefined), the T/C is, setting by setting: (dose: 60.0 mg/kg/injection, schedule: Q01DX005 (ip), vehicle: saline with Tween-80) 95 % of control; (dose: 120.0 mg/kg/injection, schedule: Q01DX005 (ip), vehicle: saline with Tween-80) 88 % of control.

Regarding `Cc1cc(C)n(-c2ccccc2-[n+]2noc([O-])c2C)n1`, the T/C by setting is: (dose: 50.0 mg/kg/injection, schedule: Q01DX005 (ip), vehicle: saline with Tween-80) 97 % of control; (dose: 100.0 mg/kg/injection, schedule: Q01DX005 (ip), vehicle: saline with Tween-80) 95 % of control; (dose: 200.0 mg/kg/injection, schedule: Q01DX005 (ip), vehicle: saline with Tween-80) 95 % of control.

On to `C(=N\Nc1nnc2c3cccnc3c3ccccc3c2n1)/c1ccc2c(c1)OCO2`, for which the T/C was 108 % of control under setting [1] and 104 % of control under setting [3].

In the case of `O=S(=O)(F)c1cccc(Cl)c1C[P+](c1ccccc1)(c1ccccc1)c1ccccc1`, the T/C (dose: 15.0 mg/kg/injection, schedule: Q01DX005 (ip), vehicle: saline with Tween-80) is 112 % of control.

As for `ClCCN(CCCl)c1ccc(N=Nc2ccc(-c3ccccc3)cc2)cc1`, the T/C is 95 % of control (dose: 3.0 mg/kg/injection, schedule: Q01DX001 (ip), vehicle: Klucel (hydroxypropylcellulose) (HPC)); 103 % of control (dose: 6.0 mg/kg/injection, schedule: Q01DX001 (ip), vehicle: Klucel (hydroxypropylcellulose) (HPC)); 93 % of control (dose: 12.0 mg/kg/injection, schedule: Q01DX001 (ip), vehicle: Klucel (hydroxypropylcellulose) (HPC)).

For `O=C(/C(O)=C(\O)C(=O)N(C1CCCCC1)C1CCCCC1)N(C1CCCCC1)C1CCCCC1`, the T/C (dose: 25.0 mg/kg/injection, schedule: Q01DX005 (ip), vehicle: Klucel (hydroxypropylcellulose) (HPC)) is 100 % of control; the T/C (dose: 50.0 mg/kg/injection, schedule: Q01DX005 (ip), vehicle: Klucel (hydroxypropylcellulose) (HPC)) is 96 % of control; the T/C (dose: 100.0 mg/kg/injection, schedule: Q01DX005 (ip), vehicle: Klucel (hydroxypropylcellulose) (HPC)) is 100 % of control; the T/C (dose: 200.0 mg/kg/injection, schedule: Q01DX005 (ip), vehicle: Klucel (hydroxypropylcellulose) (HPC)) is 92 % of control.

Regarding `Oc1ccccc1O.[O-]c1ccccc1[O-].[O-]c1ccccc1[O-].[O]=[V+2]`, the T/C under setting [5] was 100 % of control; the T/C (dose: 5.0 mg/kg/injection, schedule: Q04DX003 (ip), vehicle: saline) is 95 % of control; the T/C under setting [6] was 90 % of control; the T/C (dose: 10.0 mg/kg/injection, schedule: Q04DX003 (ip), vehicle: saline) is 118 % of control; the T/C (dose: 20.0 mg/kg/injection, schedule: Q04DX003 (ip), vehicle: saline) is 100 % of control.

Regarding `CC[P+](c1ccccc1)(c1ccccc1)c1ccccc1`, the T/C was 111 % of control (dose: 0.62 mg/kg/injection, schedule: Q01DX009 (ip), vehicle: saline with Tween-80); 104 % of control (dose: 1.25 mg/kg/injection, schedule: Q01DX009 (ip), vehicle: saline with Tween-80); 112 % of control (dose: 2.5 mg/kg/injection, schedule: Q01DX009 (ip), vehicle: saline with Tween-80); 119 % of control (dose: 5.0 mg/kg/injection, schedule: Q01DX009 (ip), vehicle: saline with Tween-80).

With `COC1=NC2=NC(OC)=NC3=C(Br)C=C(Br)C(=N1)N23`, the T/C was 91 % of control (dose: 60.0 mg/kg/injection, schedule: Q01DX005 (ip), vehicle: Klucel (hydroxypropylcellulose) (HPC)); 92 % of control (dose: 120.0 mg/kg/injection, schedule: Q01DX005 (ip), vehicle: Klucel (hydroxypropylcellulose) (HPC)); 87 % of control (dose: 240.0 mg/kg/injection, schedule: Q01DX005 (ip), vehicle: Klucel (hydroxypropylcellulose) (HPC)).

In the case of `c1ccc([C@H]2CN3CCSC3=N2)cc1`, the T/C was 101 % of control (dose: 1.25 mg/kg/injection, schedule: Q01DX009 (ip), vehicle: saline); 97 % of control (dose: 2.5 mg/kg/injection, schedule: Q01DX009 (ip), vehicle: saline); 101 % of control under setting [5]; 98 % of control (dose: 6.9 mg/kg/injection, schedule: Q01DX005 (ip), vehicle: saline); 99 % of control under setting [6]; 100 % of control and 109 % of control (dose: 11.5 mg/kg/injection, schedule: Q01DX001 (ip), vehicle: saline). Further, the T/C (dose: 11.5 mg/kg/injection, schedule: Q01DX005 (ip), vehicle: saline) is 103 % of control; the T/C (dose: 19.2 mg/kg/injection, schedule: Q01DX001 (ip), vehicle: saline) is 99 % of control and 109 % of control; the T/C (dose: 19.2 mg/kg/injection, schedule: Q01DX005 (ip), vehicle: saline) was 105 % of control; the T/C (dose: 20.0 mg/kg/injection, schedule: Q01DX009 (ip), vehicle: saline) was 113 % of control; the T/C (dose: 32.0 mg/kg/injection, schedule: Q01DX001 (ip), vehicle: saline) was 99 % of control.

On to `COc1cc2c(cc1OC)C1CC(=O)CCN1CC2` (centres undefined), for which the T/C by setting is: (dose: 12.5 mg/kg/injection, schedule: Q01DX009 (ip), vehicle: Klucel (hydroxypropylcellulose) (HPC)) 111 % of control; (dose: 25.0 mg/kg/injection, schedule: Q01DX009 (ip), vehicle: Klucel (hydroxypropylcellulose) (HPC)) 106 % of control; (dose: 50.0 mg/kg/injection, schedule: Q01DX009 (ip), vehicle: Klucel (hydroxypropylcellulose) (HPC)) 101 % of control; (dose: 100.0 mg/kg/injection, schedule: Q01DX009 (ip), vehicle: Klucel (hydroxypropylcellulose) (HPC)) 107 % of control.

As to `CCc1cc2c(cc1-c1csc(C/C(N)=N/O)n1)C(C)(C)CCC2(C)C`, the T/C is, setting by setting: (dose: 50.0 mg/kg/injection, schedule: Q01DX009 (ip), vehicle: saline) 104 % of control; (dose: 100.0 mg/kg/injection, schedule: Q01DX009 (ip), vehicle: saline) 103 % of control; (dose: 200.0 mg/kg/injection, schedule: Q01DX009 (ip), vehicle: saline) 100 % of control.

`C1CCC2CC2C2(CC1)CO2` (centres undefined): the T/C runs as follows: (dose: 100.0 mg/kg/injection, schedule: Q04DX003 (ip), vehicle: Klucel (hydroxypropylcellulose) (HPC)) 106 % of control; (dose: 200.0 mg/kg/injection, schedule: Q04DX003 (ip), vehicle: Klucel (hydroxypropylcellulose) (HPC)) 108 % of control; (dose: 400.0 mg/kg/injection, schedule: Q04DX003 (ip), vehicle: Klucel (hydroxypropylcellulose) (HPC)) 115 % of control.

The record behind these values is PubChem BioAssay AID330 (DTP/NCI, 2004).
